What all share (test): microbe, parasite or virus in culture
Format in all cases: cell-based, Hepatitis C virus (HCV)
Common to all, as to details: Replicon Assay A
In general terms: In antiviral work, replicon cells carry a viral genome segment that copies itself.

Assay [1] concerns HCV replicon 1A. On the procedure:
(§1) To measure cell-based anti-HCV activity of compounds of the present invention, two complimentary assays were employed using various replicons. In the first assay (“Replicon Assay A”), replicon cells were seeded at 2000 cells/well in 384-well 384-well flat bottom tissue culture treated clear bottom plate (Corning 3707) in the presence of the test compound. […] The final concentration of DMSO was 0.5%. Fetal bovine serum was 5%, in the assay media. Cells were harvested on day 3 by removing media and washing the cells with a suitable wash buffer. The cells are lysed with the addition of 1× Qiagen lysis buffer (Cat #1062731). The replicon RNA level was measured using real time PCR (TaqMan® EZ RT-PCR, Applied Biosystems 403028) with the following primers and probes: […]
(§2) Cyclophilin RNA was used as endogenous control and was amplified in the same reaction as NS5B (multiplex PCR). The real-time RT-PCR reactions were run on ABI PRISM 7900HT Sequence Detection System using the following program: 50° C. for 2 minutes, 60° C. for 30 minutes, 95° C. for 5 minutes, 40 cycles of 94° C. for 20 sec, 55° C. for 1 minutes.
(§3) The amount of HCV replicon RNA per cell is quantified using a linear regression curve for a known nanogram (ng) amount of HCV replicon total RNA. This is established by plotting the Cycle Threshold values (Ct) from the Neo probe and primer set versus the log (ng) for each HCV replicon total RNA standard. The amount of HCV RNA for each replicon sample is calculated by taking the sample's Ct value, minus the line intercept, divided by the slope of the line. Similarly, the amount of Cyclophilin mRNA per cell is also quantified using a linear regression curve for a known nanogram (ng) amount of HCV replicon total RNA. Again, this is established by plotting the Cycle Threshold values (Ct) from the Cyclophilin probe and primer set versus the log (ng) for each HCV replicon total RNA standard.
(§4) Data for replicons 1A, 1AY93H and 2B were obtained using Replicon Assay A and data for replicons 1AQ30D and 1B were obtained using Replicon Assay B.

The test system of assay [2] is HCV replicon 2B. Here is the method:
as §1, §2, §3, §4

Assay [3] concerns HCV replicon 1AY93H. Here is the method:
as §1, §2, §3, §4

Where [4] appears, read: read-out: 1A Y93H IC50, replicon 1AY93H.
Where [5] appears, read: read-out: 2B IC50, HCV replicon 2B.
[6] abbreviates: Hepatitis C virus, HCV replicon 1A.

Where two headings read alike, the source gives them in different places.

A word on the IC50: it is the concentration that gives 50% inhibition. With `COC(=O)NC(C(=O)N1[C@@H]2C[C@@H]2C[C@H]1c1ncc(-c2ccc3c(c2)cc2n3C(c3ccc(C(F)F)s3)Oc3cc(-c4cnc([C@@H]5CCCN5C(=O)[C@@H](NC(=O)OC)C(C)C)[nH]4)cc(F)c3-2)[nH]1)C1C[C@@H](C)O[C@@H](C)C1` (single isomer, unassigned) [Compound 286], the IC50 in assay [1] (Hepatitis C virus, replicon 1A) stood at 0.001 nM; in assay [2] (read-out: 2B IC50, replicon 2B) it was 0.018 nM. Turning to `CCc1ccc(C2Oc3cc(-c4cnc([C@@H]5CCCN5C(=O)[C@@H](NC(=O)OC)C(C)C)[nH]4)cc(F)c3-c3cc4cc(-c5cnc([C@@H]6C[C@@H](F)CN6C(=O)C(NC(=O)OC)C6CCOC(C)(C)C6)[nH]5)ccc4n32)s1` (single isomer, unassigned) [Compound 255], the IC50 in assay [2] (read-out: 2B IC50, replicon 2B) was 3.63 nM; in assay [3] (setting [4]) it was 0.084 nM. Turning to `COC(=O)NC(C(=O)N1[C@@H]2C[C@@H]2C[C@H]1c1ncc(-c2ccc3c(c2)cc2n3C(c3ccc(C(C)C)s3)Oc3cc(-c4cnc([C@@H]5CCCN5C(=O)[C@@H](NC(=O)OC)C(C)C)[nH]4)cc(F)c3-2)[nH]1)C1C[C@@H](C)O[C@@H](C)C1` (single isomer, unassigned) [Compound 283], the IC50 in assay [2] (Hepatitis C virus, read-out: 2B IC50 (nM), replicon 2B) was 0.68 nM; in assay [3] (Hepatitis C virus, read-out: 1A Y93H IC50 (nM), replicon 1AY93H) it was 0.192 nM.

In the case of `COC(=O)N[C@H](C(=O)N1CCC[C@H]1c1ncc(-c2cc(F)c3c(c2)OC(c2ccc(C(C)CF)s2)n2c-3cc3cc(-c4cnc([C@@H]5CCCN5C(=O)[C@@H](NC(=O)OC)C(C)C)[nH]4)ccc32)[nH]1)C(C)C` (single isomer, unassigned) [Compound 333], the IC50 in assay [1] (replicon 1A) was 0.001 nM; in assay [2] (read-out: 2B IC50, replicon 2B), 0.0314 nM. For `COC(=O)N[C@H](C(=O)N1CCC[C@H]1c1ncc(-c2cc(F)c3c(c2)OC(c2ccc(C(CF)CF)s2)n2c-3cc3cc(-c4cnc([C@@H]5CCCN5C(=O)[C@@H](NC(=O)OC)C(C)C)[nH]4)ccc32)[nH]1)C(C)C` (single isomer, unassigned) [Compound 121] the same measures were 0.0012 nM and 0.17 nM. In the case of `COC(=O)NC(C(=O)N1CCC[C@H]1c1ncc(-c2ccc3c(c2)cc2n3C(c3ccc(C4CC4)s3)Oc3cc(-c4cnc([C@@H]5CCCN5C(=O)[C@@H](NC(=O)OC)C(C)C)[nH]4)cc(F)c3-2)[nH]1)C1CCCCO1` (single isomer, unassigned) [Compound 341], the IC50 in assay [2] (read-out: 2B IC50, replicon 2B) turned out to be 1.24 nM; in assay [3] (setting [4]), 0.52 nM. `COCc1ccc(C2Oc3cc(-c4cnc([C@@H]5CCCN5C(=O)[C@@H](NC(=O)OC)C(C)C)[nH]4)cc(F)c3-c3cc4cc(-c5cnc([C@@H]6CCCN6C(=O)[C@@H](NC(=O)OC)[C@@H]6C[C@@H](C)O[C@@H](C)C6)[nH]5)ccc4n32)s1` (single isomer, unassigned) [Compound 534]: the IC50 is 0.00692 nM in assay [1] (HCV replicon 1A) and 0.02 nM in assay [2] (setting [5]). Take `COC(=O)NC(C(=O)N1[C@@H]2C[C@@H]2C[C@H]1c1ncc(-c2ccc3c(c2)cc2n3C(c3cc4ccccc4s3)Oc3cc(-c4cnc([C@@H]5CCCN5C(=O)[C@@H](NC(=O)OC)C(C)C)[nH]4)cc(F)c3-2)[nH]1)C1C[C@@H](C)O[C@@H](C)C1` (single isomer, unassigned) [Compound 647]: the concentration for half-maximal inhibition (IC50) in assay [1] (setting [6]) was found to be 0.0026 nM; in assay [2] (setting [5]) it was 0.153 nM. On to `COC(=O)NC(C(=O)N1CCC[C@H]1c1ncc(-c2ccc3c(c2)cc2n3C(c3ccc(C4CC4)s3)Oc3cc(-c4cnc([C@@H]5CCCN5C(=O)[C@@H](NC(=O)OC)C(C)C)[nH]4)cc(F)c3-2)[nH]1)C1CCOC2(CC2)C1` (single isomer, unassigned) [Compound 177], for which the IC50 was determined as 0.0014 nM in assay [1] (replicon 1A) and 0.016 nM in assay [2] (read-out: 2B IC50, replicon 2B). Take `COC(=O)NC(C(=O)N1CCC[C@H]1c1ncc(-c2ccc3c(c2)cc2n3C(c3ccc(C4CC4)s3)Oc3cc(-c4cnc([C@@H]5CCCN5C(=O)[C@@H](NC(=O)OC)C(C)C)[nH]4)cc(F)c3-2)[nH]1)C1CCOC2(CC2)C1` (single isomer, unassigned) [Compound 176]: the IC50 was 0.0011 nM in assay [1] (Hepatitis C virus, replicon 1A) and 0.046 nM in assay [2] (read-out: 2B IC50, replicon 2B). Take `COC(=O)NC(C(=O)N1CCC[C@H]1c1ncc(-c2ccc3c(c2)cc2n3C(c3ccc(C4CC4)s3)Oc3cc(-c4cnc([C@@H]5C[C@H]6C[C@H]6N5C(=O)[C@@H](NC(=O)OC)C(C)C)[nH]4)cc(F)c3-2)[nH]1)C1C[C@@H](C)O[C@@H](C)C1` (single isomer, unassigned) [Compound 536]: the IC50 is 0.00272 nM in assay [1] (setting [6]) and 0.0219 nM in assay [2] (setting [5]). `COC(=O)NC(C(=O)N1CCC[C@H]1c1ncc(-c2ccc3c(c2)cc2n3C(c3ccc(C4CC4)s3)Oc3cc(-c4cnc([C@@H]5CCCN5C(=O)[C@@H](NC(=O)OC)C(C)C)[nH]4)cc(F)c3-2)[nH]1)C1CCOC2(CC2)C1` (single isomer, unassigned) [Compound 179]: the 50% inhibitory concentration (IC50) in assay [1] (replicon 1A) was determined as 0.0012 nM; in assay [2] (read-out: 2B IC50, replicon 2B), 4.63 nM. For `COC(=O)N[C@H](C(=O)N1CCC[C@H]1c1ncc(-c2cc(F)c3c(c2)OC(c2ccc(C(C)C(F)(F)F)s2)n2c-3cc3cc(-c4cnc([C@@H]5CCCN5C(=O)[C@@H](NC(=O)OC)C(C)C)[nH]4)ccc32)[nH]1)C(C)C` (single isomer, unassigned) [Compound 133] the same measures were 0.002 nM and 0.15 nM. Consider `COC(=O)NC(C(=O)N1CCC[C@H]1c1ncc(-c2ccc3c(c2)cc2n3C(c3ccc(C4CC4)s3)Oc3cc(-c4cnc([C@@H]5CCCN5C(=O)[C@@H](NC(=O)OC)C(C)C)[nH]4)cc(F)c3-2)[nH]1)C1CCO[C@@H](C)C1` (single isomer, unassigned) [Compound 401], for which the IC50 in assay [1] (replicon 1A) was 0.0018 nM; in assay [2] (read-out: 2B IC50, replicon 2B), 0.0064 nM. In turn, `COC(=O)NC(C(=O)N1CCC[C@H]1c1ncc(-c2ccc3c(c2)cc2n3C(c3ccc(C(C)C)s3)Oc3cc(-c4cnc([C@@H]5CCCN5C(=O)[C@@H](NC(=O)OC)C(C)C)[nH]4)cc(F)c3-2)[nH]1)C1C[C@@H](C)O[C@@H](C)C1` (single isomer, unassigned) [Compound 233] gave an IC50 in assay [1] (replicon 1A) of 0.066 nM. Turning to `COC(=O)NC(C(=O)N1CCC[C@H]1c1ncc(-c2ccc3c(c2)cc2n3C(c3ccc(C4CC4)s3)Oc3cc(-c4cnc([C@@H]5CCCN5C(=O)[C@@H](NC(=O)OC)C(C)C)[nH]4)cc(F)c3-2)[nH]1)C1CCOC2(CC2)C1` (single isomer, unassigned) [Compound 178], the IC50 came out at 0.0017 nM in assay [1] (replicon 1A) and 3.4 nM in assay [2] (read-out: 2B IC50, replicon 2B). Taken in the same sequence, the figures for `[2H]C(C)(C)C(NC(=O)OC)C(=O)N1CCC[C@H]1c1ncc(-c2cc(F)c3c(c2)OC(c2ccc(C4CC4)s2)n2c-3cc3cc(-c4cnc([C@@H]5CCCN5C(=O)[C@@H](NC(=O)OC)C(C)C)[nH]4)ccc32)[nH]1` (single isomer, unassigned) [Compound 30] were 0.0513 nM and 33.3 nM.

Molecule `COC(=O)NC(C(=O)N1CCC[C@H]1c1ncc(-c2ccc3c(c2)cc2n3C(c3ccc(C4CC4)s3)Oc3cc(-c4cnc([C@@H]5CCCN5C(=O)[C@@H](NC(=O)OC)C(C)C)[nH]4)cc(F)c3-2)[nH]1)C1CC2CCC(C1)O2` (single isomer, unassigned) [Compound 180] came in with an IC50 in assay [1] (Hepatitis C virus, replicon 1A) of 0.0025 nM. Turning to `COC(=O)N[C@H](C(=O)N1CCC[C@H]1c1ncc(-c2cc(F)c3c(c2)OC(c2ccc(C4CC4(F)F)s2)n2c-3cc3cc(-c4cnc([C@@H]5CCCN5C(=O)[C@@H](NC(=O)OC)C(C)C)[nH]4)ccc32)[nH]1)C(C)C` (single isomer, unassigned) [Compound 118], the IC50 in assay [1] (Hepatitis C virus, replicon 1A) is 0.0012 nM; in assay [2] (read-out: 2B IC50, replicon 2B), 0.97 nM. Regarding `COC(=O)NC(C(=O)N1CCC[C@H]1c1ncc(-c2ccc3c(c2)cc2n3C(c3ccc(C4CC4)s3)Oc3cc(-c4cnc([C@@H]5CCCN5C(=O)[C@@H](NC(=O)OC)C(C)C)[nH]4)cc(F)c3-2)[nH]1)C1CCO[C@@H](C)C1` (single isomer, unassigned) [Compound 402], the IC50 in assay [1] (replicon 1A) was determined as 0.0034 nM; in assay [2] (read-out: 2B IC50, replicon 2B), 0.0054 nM. Consider `COC(=O)N[C@H](C(=O)N1CCC[C@H]1c1ncc(-c2cc(F)c3c(c2)OC(c2ccc(C4CCCCC4)s2)n2c-3cc3cc(-c4cnc([C@@H]5CCCN5C(=O)[C@@H](NC(=O)OC)C(C)C)[nH]4)ccc32)[nH]1)C(C)C` (single isomer, unassigned) [Compound 528], for which the IC50 in assay [1] (setting [6]) turned out to be 0.00883 nM; in assay [2] (setting [5]), 8.81 nM. As to `COCc1ccc(C2Oc3cc(-c4cnc([C@@H]5CCCN5C(=O)[C@@H](NC(=O)OC)C(C)C)[nH]4)cc(F)c3-c3cc4cc(-c5c[nH]c([C@@H]6CCCN6C(=O)[C@@H](NC(=O)OC)C(C)C)n5)ccc4n32)s1` (single isomer, unassigned) [Compound 512], the IC50 in assay [1] (HCV replicon 1A) stood at 0.00282 nM; in assay [2] (setting [5]), 0.15 nM.

For the origin of these results see patent US20160257697A1, “THIOPHENE-SUBSTITUTED TETRACYCLIC COMPOUNDS AND METHODS OFUSE THEREOF FOR THE TREATMENT OF VIRAL DISEASES” (priority 2013, published 2016).
